Reference: ChEMBL document CHEMBL1201862, “PubChem BioAssay data set” (2004)
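Values below derive from 48-hour exposures of cells grown in 96-well plates, with endpoints linearly interpolated between the two concentrations bracketing the appropriate inhibition level. GI50 is the concentration that inhibits growth by half.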 Activity calls are given as the source filed them. No stated cut-off is given here; in the data, active = GI50 up to about 1.1 µM and inactive = higher. Where a SMILES comes first, the peptide text is derived from it. [ ]: non-standard residue; d: D form. Ac5c = NC1(C(=O)O)CCCC1

How the values were obtained:
Test in all cases: NCI anticancer screen, dose series, 48 h
[1] = test system: T47D
[2] = test system: HCT-116
[3] = test system: K562
[4] = test system: HOP-62
[5] = test system: UACC-257
[6] = test system: KM12
[7] = test system: MOLT-4
[8] = test system: EKVX
[9] = test system: SF-295
[10] = test system: SNB-19
[11] = test system: Malme-3M
[12] = test system: NCI-H522
[13] = test system: MDA-N
[14] = test system: ACHN
[15] = test system: TK-10
[16] = test system: SN12C
[17] = test system: SK-MEL-2
[18] = test system: UACC-62
[19] = test system: SR
[20] = test system: HL-60

Measured: GI50

CC(=O)NC1C(OCC(=O)NCCNc2ccc([N+](=O)[O-])c3[nH]c4ccccc4c(=O)c23)C(O)C(CO)OC1(C)OCc1ccccc1 (stereo not drawn)
inactive: [1] > 100 µM | [2] > 100 µM | [3] > 100 µM | [4] > 100 µM | [5] > 100 µM | [6] > 100 µM | [7] > 100 µM | [8] > 100 µM | [9] > 100 µM | [10] > 100 µM | [11] > 10 µM | [12] > 100 µM | [13] > 100 µM | [14] > 100 µM | [15] > 100 µM | [16] > 100 µM | [17] > 100 µM | [18] > 100 µM

CCC(c1ccccc1)c1cc(C(C)(C)C)cc(C(C)(C)C)c1O (stereo not drawn)
inactive: [1] 16.1 µM | [19] 31.7 µM | [2] 12.9 µM | [3] 16.7 µM | [4] 16.2 µM | [5] 15.2 µM | [6] 18.4 µM | [8] 17.8 µM | [9] 13.9 µM | [10] 18.3 µM | [11] 13.9 µM | [12] 13.7 µM | [13] 17.1 µM | [14] 18.6 µM | [15] 15.5 µM | [16] 17.3 µM | [17] 15.7 µM | [18] 18 µM

CCCCSC1=N/C(=C\c2ccco2)C(=O)N1
inactive: [1] 16.5 µM | [2] 56.1 µM | [4] > 100 µM | [5] 34.8 µM | [6] 37.6 µM | [7] 36.1 µM | [8] 36.6 µM | [9] 45.5 µM | [20] 18.2 µM | [10] 63.8 µM | [11] 29.2 µM | [12] 28.9 µM | [13] 42.4 µM | [14] > 100 µM | [15] 59.6 µM | [16] 99.1 µM | [17] 54.8 µM | [18] 42.1 µM

CCCCc1ccc(C#CC#Cc2ccc(CCCC)s2)s1
inactive: [1] > 100 µM | [19] > 100 µM | [2] > 100 µM | [4] > 100 µM | [5] > 100 µM | [6] > 100 µM | [7] > 100 µM | [8] > 100 µM | [9] > 100 µM | [20] 24.8 µM | [12] > 100 µM | [13] > 100 µM | [14] > 100 µM | [15] > 100 µM | [16] > 100 µM | [18] > 100 µM

CC1(C)CNC(c2ccc3c(c2)Cc2cc(C4=NC(C)(C)CN4)ccc2-3)=N1
inactive: [1] 61.2 µM | [19] 32.5 µM | [2] 32.8 µM | [3] 24.4 µM | [4] 33.5 µM | [5] 31 µM | [6] 28.1 µM | [7] 31.9 µM | [8] 60 µM | [9] > 100 µM | [10] 35.1 µM | [11] 24.7 µM | [12] 29.9 µM | [13] 39.8 µM | [14] > 100 µM | [15] > 100 µM | [16] 36.6 µM | [17] 20.1 µM | [18] 25.3 µM

CCOC(=O)C(CCSC)(CCSC)C(=O)OCC
inactive: [1] > 100 µM | [2] > 100 µM | [3] > 100 µM | [4] > 100 µM | [5] > 100 µM | [6] > 100 µM | [7] > 100 µM | [8] > 100 µM | [9] > 100 µM | [10] > 100 µM | [11] > 100 µM | [12] > 100 µM | [13] > 100 µM | [14] > 100 µM | [15] > 100 µM | [16] > 100 µM | [17] > 100 µM | [18] 18.7 µM

CCOC(=O)CNC1=Nc2ccccc2C(=O)N2CSCC12 (stereo not drawn)
inactive: [1] > 100 µM | [19] > 100 µM | [2] > 100 µM | [3] > 100 µM | [4] > 100 µM | [5] > 100 µM | [6] > 100 µM | [7] > 100 µM | [8] > 100 µM | [9] > 100 µM | [10] > 100 µM | [11] > 100 µM | [12] > 100 µM | [13] > 100 µM | [14] > 100 µM | [15] > 100 µM | [16] > 100 µM | [17] > 100 µM | [18] > 100 µM

Cc1n[nH]c(=O)n1N1C(=O)c2ccccc2C1=O
inactive: [1] > 100 µM | [19] > 100 µM | [2] > 100 µM | [3] > 100 µM | [4] > 100 µM | [5] > 100 µM | [6] > 100 µM | [7] > 100 µM | [8] > 100 µM | [9] > 100 µM | [10] > 100 µM | [11] > 100 µM | [13] > 100 µM | [14] > 100 µM | [15] > 100 µM | [16] > 100 µM | [17] > 100 µM | [18] > 100 µM

COC(=O)C1(NC(=O)C(C)NC(=O)C(CCCCN)NC(=O)C(CC(C)C)NC(C)=O)CCCC1 (stereo not drawn) (Ac-LKA[Ac5c]-OMe; configuration not given here)
inactive: [1] > 100 µM | [19] > 100 µM | [2] > 100 µM | [3] > 100 µM | [4] > 100 µM | [5] > 100 µM | [6] > 100 µM | [7] > 100 µM | [8] > 100 µM | [9] > 100 µM | [20] > 100 µM | [10] > 100 µM | [12] > 100 µM | [13] > 100 µM | [14] > 100 µM | [15] > 100 µM | [16] > 100 µM

O=[N+]([O-])c1cc(/N=N/c2c(O)ccc3cc(S(=O)(=O)O)ccc23)c(O)c([N+](=O)[O-])c1
inactive: [1] > 100 µM | [2] > 100 µM | [3] > 100 µM | [4] > 100 µM | [5] > 100 µM | [6] 31.9 µM | [7] 31.5 µM | [8] > 100 µM | [9] 44.9 µM | [20] 11.1 µM | [10] > 100 µM | [11] > 100 µM | [12] > 100 µM | [13] > 100 µM | [14] > 100 µM | [15] > 100 µM | [16] > 100 µM | [17] > 100 µM | [18] > 100 µM

COc1ccccc1C1SCC(=O)N1c1ccc(-c2ccc(-n3c(-c4ccccc4)nc4ccccc4c3=O)cc2)cc1 (stereo not drawn)
inactive: [1] 91 µM | [2] > 100 µM | [3] > 100 µM | [4] > 100 µM | [5] > 100 µM | [6] > 100 µM | [7] > 100 µM | [8] > 100 µM | [9] > 100 µM | [20] > 100 µM | [10] > 100 µM | [11] > 100 µM | [12] > 100 µM | [13] > 100 µM | [14] > 100 µM | [15] > 100 µM | [16] > 100 µM | [17] > 100 µM | [18] 84.3 µM

CC(C)(C)C1CCC2c3c([nH]c4ccccc34)C3C(=O)N(c4cccc([N+](=O)[O-])c4)C(=O)C3C2C1 (stereo not drawn)
inactive: [1] 28.8 µM | [19] 18.2 µM | [2] 11.6 µM | [3] > 100 µM | [4] 29.6 µM | [5] 22.5 µM | [6] 5.62 µM | [7] 6.84 µM | [8] 22.4 µM | [9] 53.7 µM | [10] 55.8 µM | [11] 23.2 µM | [12] 14.6 µM | [13] 18.2 µM | [14] 36.2 µM | [15] 38.5 µM | [16] 7 µM | [17] 24.5 µM | [18] 23.4 µM

COC1(CCO)CC=CCC1(CCO)OC (stereo not drawn)
inactive: [1] > 100 µM | [2] > 100 µM | [3] > 100 µM | [4] > 100 µM | [5] > 100 µM | [6] > 100 µM | [7] > 100 µM | [8] > 100 µM | [9] > 100 µM | [20] > 100 µM | [10] > 100 µM | [11] > 100 µM | [12] > 100 µM | [13] > 100 µM | [14] > 100 µM | [15] > 100 µM | [16] > 100 µM | [17] > 100 µM | [18] > 100 µM

CCCCC/C=C1/CC(CO)(COC(=O)CC(C(C)C)C(C)C)OC1=O (stereo not drawn)
inactive: [1] 17.5 µM | [19] 16.6 µM | [2] 14.8 µM | [3] 5.75 µM | [4] 7.74 µM | [5] 21.4 µM | [6] 16.9 µM | [7] 5.42 µM | [8] 14.2 µM | [9] 5.73 µM | [10] 7.62 µM | [11] 3.27 µM | [12] 16.4 µM | [13] 3.67 µM | [14] 11.4 µM | [15] 11.8 µM | [16] 12.4 µM | [17] 13.3 µM | [18] 13.7 µM

CC(=O)N(C(=O)CC(=O)N/N=C\c1ccc(Br)c(N(CCC#N)CCC#N)c1)c1ccc(Cl)cc1
inactive: [1] 43.3 µM | [19] 44.2 µM | [2] 62.4 µM | [3] 60 µM | [4] 44.7 µM | [6] 14.1 µM | [7] 42.6 µM | [8] 60.5 µM | [9] 22.7 µM | [20] 35.4 µM | [10] 25.9 µM | [11] 51.6 µM | [13] 41.3 µM | [14] 14.5 µM | [15] 27.8 µM | [16] 7 µM | [18] 7.55 µM
